Measured values published in US20240216412A1, “OXIDIZED NICOTINAMIDE ADENINE DINUCLEOTIDE (NAD+) PRECURSOR TREATMENT FOR HEART FAILURE ALLEVIATION INDEPENDENT OF MITOCHONDRIAL PROTEIN DEACETYLATION” (University of Washington, priority 2022, published 2024).

Assays:
Assay type in all cases: in vivo, mouse
cardiac mitochondria = experiment: Isolated cardiac mitochondria respiration (oxygen electrode); conditions: both genotypes
Protocol: (§1) Mitochondrial Isolation from cardiac tissue. Hearts were excised from mice, the aortas and atria were removed. Heart tissues were rinsed briefly in ice-cold mitochondria isolation medium (MIM) (70 mM sucrose, 220 mM mannitol, 5 mM MOPS, 1 mM EDTA, 0.025% fatty acid-free BSA, pH 7.4 with 5M KOH) to remove residual blood. Tissues were minced on ice and resuspended in fresh MIM, followed by trypsin digestion (10 ug/ml) and incubated on ice for 10 min. Trypsin digestion was stopped by the addition of trypsin inhibitor (0.5 mg/ml) and additional BSA (1 mg/ml) to MIM. The tissue pellets were resuspended in fresh MIM containing 1 mg/ml BSA, and transferred to a Teflon-glass tube and homogenized on ice with a Teflon pestle. The homogenates were centrifuged for 10 min at 800×g at 4° C. The supernatants were collected and centrifuged for 10 min at 8,000×g at 4° C. The supernatant was discarded and the mitochondrial pellets were resuspended in MIM to wash. The resuspension was centrifuged for 10 min at 8,000×g at 4° C., and the supernatant discarded. The mitochondrial pellet was resuspended to a concentrated volume for protein quantification by BCA Assay (Pierce).
Mitochondrial respirations. Isolated mitochondria respiration experiments were performed in an Clark type oxygen electrode Oxytherm System (Hansatech Instruments) at 30C. Briefly, freshly isolated mitochondria were added to respiration buffer (125 mM KCl, 20 mM HEPES, 3 mM MgCl2, 400 μM EGTA, 5 mM KH2PO4, 0.2% BSA (fatty acid free), pH 7.2) and placed in the respiration chamber to measure baseline respiration (State 1). The change in oxygen levels following the immediate addition of substrates (pyruvate/malate (5 mM/2 mM) or palmitoylcarnitine/malate (50 μM/2 mM) (State 2) followed by the sequential addition of 2.5 mM ADP (State 3), […] Oligomycin (State 4p) and 1 μM FCCP (FCCP Max). Antimycin A (2.5 μM) was added last to measure the residual oxygen consumption not accounted for by the electron transfer chain and it was subtracted from the previous measurements.

[1] = test system: mitochondrial protein acetylation; Mrpp2, mt-Cox1, mt-Nd1 protein levels; experiment: Western blot of cardiac mitochondrial protein acetylation and of Mrpp2, mt-Cox1, mt-Nd1
Protocol: Western blot. For Western blot procedures cardiac tissues were homogenized with RIPA buffer (ThermoScientific Pierce RIPA Buffer #89900) and protease inhibitors (Roche Cat. No. 11-836-170-001) using bullet blender at 4° C. for 10 minutes. Protein concentrations of supernatants were collected after centrifugation and quantified using Pierce™ BCA® Protein Assay Kits and Reagents (#23225). Protein lysates in Lammeli sample buffer were loaded to 10% SDS-PAGE, transferred to PVDF membrane and blocked with 5% BSA in TSBT. Specific proteins were detected by specific antibodies listed above and corresponding secondary antibodies. Signals were visualized by HRP derived chemiluminescence (Amersham ECL Western Blotting Detection System #RPN2106) and film. Protein levels were quantified by Image-J.
as §1
Antibodies. Acetylated lysine antibody (Cell Signaling 9441s), Mrpp2 (Hsd17b10, ERAB) from Proteintech catalog number 10648-1-AP, Mrrp1 (Trmt10c) from Proteintech catalog number 29087-1-AP, Mt-C01 from Abcam [1D6E1A8] (ab14705), and Mt-Nd1 from Santa Cruz (C-18) catalog sc-20493, RXRα (Cell Signaling D6H10) Rabbit mAb, SirT3 (Cell Signaling D22A3) Rabbit mAb, ATP5B (E-1) Santa Cruz Biotechnology sc-55597.

[2] = test system: isoproterenol (ISO) induced heart failure in WT and Sirt3Ko mice; experiment: Isoproterenol (ISO) minipump induced heart failure, echocardiography and HW/TL; conditions: 14 days of ISO, NR 500 mg/kg body weight IP daily
Protocol: Minipump implantation. Pathologic hypertrophy was induced by treating male (3-4 months old) Sirt3ko and WT mice with isoproterenol (ISO) or vehicle for 14 days. Mice with and without GW6471(4.5 mg/kg/day) were treated with NR (500 mg/kg body weight IP daily) or vehicle starting at day one after mini-pump insertion. Briefly, an incision was made in the skin between the shoulder blades. A deep subcutaneous pocket was made caudal to the incision using blunt dissection. The sterile minipump (Alzet #2002) was inserted into the pocket, and the incision was closed with wound clips. Isoproterenol (30 mg/kg/day) was delivered by osmotic minipump for 14 days. Minipumps carrying saline were used as a control.
Transthoracic Echocardiography. Echocardiography of hearts was performed at indicated time after surgery using the VEVO 2100 high-frequency, high-resolution digital imaging system (VisualSonics) equipped with a MS400 Microscan Transducer on anesthetized mice (0.5%-2% isoflurane in 95% oxygen). Measurements were made when heart rate was >450 bpm. Cardiac function and geometry measurements were measured in parasternal short axis view. M-mode images were used for analysis and calculated by the average of at least three cardiac cycles and carried out in a blind fashion. Hearts were harvested at 12-week post-surgery for subsequent experiments and biochemical assays.
Organ weight and histological assessment. Hearts from mice were harvested, rinsed briefly in 1×PBS, blotted dry, and weighed. Lungs from the same mice were harvested, weighed, then dried at 56 C. After 72 hours the lungs were weighed again. Heart weight (HW) and Lung weight (LW) was normalized to tibia length (TL) to assess changes in hypertrophic growth and lung edema, respectively. For histology, hearts were perfusion fixed with 10% neutral buffered formalin. Longitudinal sections of hearts were stained with Masson's Trichrome for assessment of fibrosis by the University of Washington Histology and Imaging Core.

## NC(=O)c1ccc[n+]([C@@H]2O[C@H](CO)[C@@H](O)[C@H]2O)c1 [NR, Nicotinamide riboside chloride]
Cardiac mitochondria; TAC, Complex I substrates
  Mitochondrial respiratory function (State 3 respiration): improved
Cardiac mitochondria; cardiac mitochondria from ISO treated hearts, NR
  Palmitoylcarnitine (PLC) supported State 3 respiration (ADP stimulated): restored
[1]; NR treated Sirt3Ko mice
  Mitochondrial protein acetylation: no change
[1]; NR treated TAC hearts
  Mrpp2 protein level: normalization
[1]; TAC hearts that received NR
  Protein levels of mt-Cox1 and mt-Nd1: preserved
[1]; WT control mice after TAC
  Mitochondrial protein hyperacetylation: reversed the protein hyperacetylation
[2]
  Cardiac hypertrophy: partially reduced
  FS %: increased
